# Measured values: patent publication US8778923B2, “GLP-1 receptor modulators” (Receptos, Inc., priority 2011, dated 2014)
# Where a name gives a salt, the structure may show the parent alone.
# Target: T1, GLP-1R (Homo sapiens, UniProt P43220)
# T1 construct: host or cells: CRE-bla CHO-K1
# Test: EC20 GLP-1(9-36) PAM cAMP assay: dose response of compound in the presence of fixed concentration of GLP-1(9-36)
# Assay type: cell-based
# Conditions: GLP-1R CRE-bla CHO-K1 cells, compound dose response in presence of fixed concentration of GLP-1(9-36)
# Method in brief: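 Positive allosteric modulation read as cAMP rise: 12-point compound titration combined with a fixed EC20 level of GLP-1(9-36) on GLP-1R CHO-K1 cells, IBMX present, 30 min at 37 °C. Luminescent HitHunter signal converted to cAMP; nonlinear fit gave EC50 and Emax.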
# T1 sequence (P43220 24-463): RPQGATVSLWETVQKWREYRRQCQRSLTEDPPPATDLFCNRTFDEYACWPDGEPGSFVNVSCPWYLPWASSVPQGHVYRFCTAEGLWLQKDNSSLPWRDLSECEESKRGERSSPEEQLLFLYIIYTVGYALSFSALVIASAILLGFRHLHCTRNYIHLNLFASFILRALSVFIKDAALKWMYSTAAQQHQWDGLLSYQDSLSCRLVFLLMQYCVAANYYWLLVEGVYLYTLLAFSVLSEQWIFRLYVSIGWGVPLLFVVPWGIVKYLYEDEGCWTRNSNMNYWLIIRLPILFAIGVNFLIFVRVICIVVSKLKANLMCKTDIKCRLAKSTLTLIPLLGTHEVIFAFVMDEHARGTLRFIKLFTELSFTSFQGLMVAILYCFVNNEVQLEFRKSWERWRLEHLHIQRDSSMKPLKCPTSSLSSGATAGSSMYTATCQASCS
# T1 sequence (P01275 100-127 partner limits assumed): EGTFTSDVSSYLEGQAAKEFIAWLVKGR
row,Structure (SMILES),EC50
1,CC(C)(C)c1ccc(C(=O)N[C@@H](Cc2ccc(-c3ncc(-c4ccc(Cl)cc4)cn3)cc2)C(=O)O)cc1 [Compound 211],5000 to 10000 nM
2,CC(C)(C)c1ccc(C(=O)N[C@@H](Cc2ccc(-c3ncc(-c4ccc(F)cc4F)cn3)cc2)C(=O)O)cc1 [Compound 208],2500 to 5000 nM
3,CC(C)(C)c1ccc(C(=O)N[C@@H](Cc2ccc(-c3noc(-c4ccc(-c5cc(F)ccc5F)cc4)n3)cc2)C(=O)O)cc1 [Compound 23],2500 to 5000 nM
4,CC(C)(C)c1ccc(-c2cnc(-c3ccc(C[C@H](NC(=O)c4nnc(C(C)(C)C)s4)C(=O)O)cc3)nc2)cc1 [Compound 169],5000 to 10000 nM
5,CCCCCCCOc1ccc(-c2cnc(-c3ccc(C[C@H](NC(=O)c4ccc(C(F)(F)F)s4)C(=O)O)cc3)nc2)cc1 [Compound 140],2500 to 5000 nM
6,CCCCCCCOc1ccc(-c2ccc(-c3ccc(C[C@H](NC(=O)c4ccc(C(C)(C)C)s4)C(=O)NCC(=O)O)cc3)nn2)cc1 [Compound 283],5000 to 10000 nM
7,CC(C)(C)c1ccc(C(=O)N[C@@H](Cc2ccc(-c3ncc(-c4ccc(COc5ccccc5)cc4)cn3)cc2)C(=O)O)cc1 [Compound 231],5000 to 10000 nM
8,CC(C)Nc1ccc(-c2cnc(-c3ccc(C[C@H](NC(=O)c4ccc(C(C)(C)C)cc4)C(=O)O)cc3)nc2)cc1 [Compound 235],2500 to 5000 nM
9,Cc1ccc(-c2nc(-c3ccc(C[C@H](NC(=O)c4ccc(C(C)(C)C)cc4)C(=O)O)cc3)no2)cc1C [Compound 58],2500 to 5000 nM
10,CC(C)(C)c1ccc(C(=O)N[C@@H](Cc2ccc(-c3ncc(-c4cccc(Cl)c4)cn3)cc2)C(=O)O)cc1 [Compound 212],5000 to 10000 nM
11,CC(C)(C)c1ccc(C(=O)N[C@@H](Cc2ccc(-c3noc(-c4ccc(Oc5ccccc5)cc4)n3)cc2)C(=O)O)cc1 [Compound 35],2500 to 5000 nM
12,Cn1ccc2c(-c3cnc(-c4ccc(C[C@H](NC(=O)c5ccc(C(C)(C)C)cc5)C(=O)O)cc4)nc3)cccc21 [Compound 197],2500 to 5000 nM
13,CCCCCCCOc1ccc(-c2cnc(-c3ccc(C[C@H](NC(=O)c4ccc(C(F)(F)F)cc4)C(=O)O)cc3)nc2)cc1 [Compound 93],5000 to 10000 nM
14,CN(C)c1ccc(-c2cnc(-c3ccc(C[C@H](NC(=O)c4ccc(C(C)(C)C)cc4)C(=O)O)cc3)nc2)cc1 [Compound 201],2500 to 5000 nM
15,"CCCCCCCOc1ccc(-c2c[nH]c(-c3ccc(C[C@H](NC(=O)c4ccc(C(C)(C)C)cc4)C(=O)O)cc3)n2)cc1 [Compound 286, (S)-2-(4-(tert-butyl)benzamido)-3-(4-(4-(4-(heptyloxy)phenyl)-1H-imidazol-2-yl)phenyl)propanoic acid hydrochloride]",2500 to 5000 nM
16,CC(C)Nc1ccc(-c2nc(-c3ccc(C[C@H](NC(=O)c4ccc(C(C)(C)C)cc4)C(=O)O)cc3)no2)cc1 [Compound 65],2500 to 5000 nM
17,CC(C)(C)c1ccc(C(=O)N[C@@H](Cc2ccc(-c3noc(-c4cccc5c4CCNC5)n3)cc2)C(=O)O)cc1 [Compound 66],2500 to 5000 nM
18,CC(C)(C)c1ccc(C(=O)N[C@@H](Cc2ccc(-c3noc(-c4ccc(-c5ccccc5F)cc4)n3)cc2)C(=O)O)cc1 [Compound 19],800 to 2500 nM
19,CCCCCCCOc1ccc(-c2cnc(-c3ccc(C[C@H](NC(=O)c4ccn(C(C)C)n4)C(=O)O)cc3)nc2)cc1 [Compound 144],800 to 2500 nM
20,CCCCCCCOc1ccc(-c2cnc(-c3ccc(C[C@H](NC(=O)c4cccc(C#N)c4)C(=O)O)cc3)nc2)cc1 [Compound 105],5000 to 10000 nM
21,CC(C)(C)c1ccc(C(=O)N[C@@H](Cc2ccc(-c3noc(-c4ccc(-c5cccc(C#N)c5)cc4)n3)cc2)C(=O)O)cc1 [Compound 28],2500 to 5000 nM
22,CCCCCCCOc1ccc(-c2ccc(-c3ccc(C[C@H](NC(=O)c4ccc(C(C)(C)C)s4)C(=O)NCC(=O)O)cc3)nc2)cc1 [Compound 285],800 to 2500 nM
23,CC(C)c1cc(C(=O)N[C@@H](Cc2ccc(-c3ncc(-c4ccc(C(C)(C)C)cc4)cn3)cc2)C(=O)O)cs1 [Compound 179],5000 to 10000 nM
24,CC(C)(C)c1ccc(C(=O)N[C@@H](Cc2ccc(-c3noc(-c4ccc(C(N)=O)cc4)n3)cc2)C(=O)O)cc1 [Compound 61],2500 to 5000 nM
25,Cn1ccc2c(-c3nc(-c4ccc(C[C@H](NC(=O)c5ccc(C(C)(C)C)cc5)C(=O)O)cc4)no3)cccc21 [Compound 49],5000 to 10000 nM

# Further lines, results first:
row,EC50,Structure (SMILES)
1,800 to 2500 nM,CCCCCCCOc1ccc(-c2cnc(-c3ccc(C[C@H](NC(=O)c4ccc(C(C)(C)C)s4)C(=O)N[C@@H](C)CC(=O)O)cc3)nc2)cc1 [Compound 346]
2,< 800 nM,CCCCCCCOc1ccc(-c2cnc(-c3ccc(C[C@@H](NC(=O)c4ccc(C(C)(C)C)s4)C(=O)N[C@H](CO)C(=O)O)cc3)nc2)cc1 [Compound 379]
3,800 to 2500 nM,CCOc1ccc(C(=O)N[C@@H](Cc2ccc(-c3ncc(-c4ccc(C(C)(C)C)cc4)cn3)cc2)C(=O)O)cc1 [Compound 171]
4,800 to 2500 nM,CCCCCCCOc1ccc(-c2nc(-c3ccc(C[C@H](NC(=O)c4ccc(C(C)(C)C)cc4)C(=O)O)cc3)co2)cc1 [Compound 78]
5,800 to 2500 nM,CCCCCCCOc1ccc(-c2cnc(-c3ccc(C[C@H](NC(=O)c4cc5c(s4)CCC5)C(=O)O)cc3)nc2)cc1 [Compound 150]
6,< 800 nM,CCCCCCCOc1ccc(-c2cnc(-c3ccc(C[C@H](NC(=O)c4ccc(C)c(C)c4)C(=O)O)cc3)nc2)cc1 [Compound 117]
7,800 to 2500 nM,CC(C)(C)c1ccc(-c2cnc(-c3ccc(C[C@H](NC(=O)c4cc(C(C)(C)C)n[nH]4)C(=O)O)cc3)nc2)cc1 [Compound 168]
8,< 800 nM,CCCCCCCOc1ccc(-c2cnc(-c3ccc(C[C@H](NC(=O)c4ccc(C(C)(C)C)s4)C(=O)N[C@@H](CO)C(=O)O)cc3)nc2)cc1 [Compound 326]
9,800 to 2500 nM,CCCCCCCOc1ccc(-c2cnc(-c3ccc(C[C@H](NC(=O)c4ccc(C(C)C)cc4)C(=O)N[C@@H](CC(=O)O)C(=O)O)cc3)nc2)cc1 [Compound 307]
10,800 to 2500 nM,CCCCCCCOc1ccc(-c2cnc(-c3ccc(C[C@H](NC(=O)c4cc(C(C)C)on4)C(=O)O)cc3)nc2)cc1 [Compound 135]
11,800 to 2500 nM,"CCCCCCCOc1ccc(-c2cnc(-c3ccc(C[C@@H](CC(=O)O)NC(=O)c4ccc(C(C)(C)C)cc4)cc3)nc2)cc1 [Compound 291, (S)-3-(4-(tert-butyl)benzamido)-4-(4-(5-(4-(heptyloxy)phenyl)pyrimidin-2-yl)phenyl)butanoic acid]"
12,800 to 2500 nM,CCCCCCCOc1ccc(-c2cnc(-c3ccc(C[C@H](NC(=O)c4ccc(C(C)(C)C)s4)C(=O)N[C@H](CC(=O)O)C(=O)O)cc3)nc2)cc1 [Compound 324]
13,800 to 2500 nM,CSCC[C@H](NC(=O)[C@H](Cc1ccc(-c2ncc(-c3ccc(C(C)(C)C)cc3)cn2)cc1)NC(=O)c1ccc(C(C)(C)C)s1)C(=O)O [Compound 367]
14,800 to 2500 nM,CCCCCCCOc1ccc(-c2cnc(-c3ccc(C[C@H](NC(=O)c4ccc(OC(C)C)cc4)C(=O)O)cc3)nc2)cc1 [Compound 97]
15,800 to 2500 nM,"CCCCCCCOc1ccc(-c2cnc(-c3ccc(C[C@H](NC(=O)c4ccc(C(C)(C)C)cc4)C(=O)O)cc3)nc2)cc1 [Compound 85, (S)-2-(4-(tert-butyl)benzamido)-3-(4-(5-(4-(heptyloxy)phenyl)pyrimidin-2-yl)phenyl)propanoic acid]"
16,800 to 2500 nM,CCCCCCCOc1ccc(-c2cnc(-c3ccc(C[C@H](NC(=O)c4cccc(C)c4)C(=O)O)cc3)nc2)cc1 [Compound 111]
17,800 to 2500 nM,CCCOc1ccc(-c2cnc(-c3ccc(C[C@H](NC(=O)c4ccc(C(C)(C)C)cc4)C(=O)O)cc3)nc2)cc1 [Compound 222]
18,< 800 nM,CCCCCCCOc1ccc(-c2cnc(-c3ccc(C[C@H](NC(=O)c4ncc(C(C)(C)C)s4)C(=O)NCC(=O)O)cc3)nc2)cc1 [Compound 371]
19,800 to 2500 nM,CCCCCCCOc1ccc(-c2cnc(-c3ccc(C[C@H](NC(=O)c4ccc(C(C)(C)C)s4)C(=O)N[C@@H](Cc4cnc[nH]4)C(=O)O)cc3)nc2)cc1 [Compound 332]
20,800 to 2500 nM,CCCCCCCOc1ccc(-c2cnc(-c3ccc(C[C@H](NC(=O)c4cnc(C(C)C)nc4)C(=O)O)cc3)nc2)cc1 [Compound 131]
21,800 to 2500 nM,CCCCCCCOc1ccc(-c2cnc(-c3ccc(C[C@H](NC(=O)c4ccc(C(C)(C)C)cc4)C(=O)O)cc3)nn2)cc1 [Compound 274]
22,800 to 2500 nM,CC(C)(C)c1ccc(C(=O)N[C@@H](Cc2ccc(-c3noc(-c4ccc(-c5ccc(F)cc5F)cc4)n3)cc2)C(=O)O)cc1 [Compound 24]
23,800 to 2500 nM,CCCCCCCOc1ccc(-c2cnc(-c3ccc(C[C@H](NC(=O)c4ccc(C(C)(C)C)s4)C(=O)NC(CN(C)C)C(=O)O)cc3)nc2)cc1 (stereo partly shown) [Compound 337]
24,< 800 nM,CC(C)c1ncc(C(=O)N[C@@H](Cc2ccc(-c3ncc(-c4ccc(C(C)(C)C)cc4)cn3)cc2)C(=O)O)s1 [Compound 180]
25,800 to 2500 nM,CCCCCCCOc1ccc(-c2nc(-c3ccc(C[C@H](NC(=O)c4ccc(C(C)(C)C)cc4)C(=O)O)cc3)cs2)cc1 [Compound 80]
26,800 to 2500 nM,CCCCCCCOc1ccc(-c2cnc(-c3ccc(C[C@H](NC(=O)c4cnn(C(C)C)c4)C(=O)NCC(=O)O)cc3)nc2)cc1 [Compound 369]
27,800 to 2500 nM,CC(C)(C)c1ccc(-c2cnc(-c3ccc(C[C@H](NC(=O)c4ncc(C(C)(C)C)s4)C(=O)O)cc3)nc2)cc1 [Compound 177]
28,800 to 2500 nM,CCCCCCCOc1ccc(-c2cnc(-c3ccc(C[C@H](NC(=O)c4ccc(CC)s4)C(=O)O)cc3)nc2)cc1 [Compound 137]
29,800 to 2500 nM,"CCCCCCCOc1ccc(-c2nc(-c3ccc(C[C@H](NC(=O)c4ccc(C(C)(C)C)cc4)C(=O)NCC(=O)O)cc3)no2)cc1 [Compound 67, (S)-2-(2-(4-(tert-butyl)benzamido)-3-(4-(5-(4-(heptyloxy)phenyl)-1,2,4-oxadiazol-3-yl)phenyl)propanamido)acetic acid]"
30,< 800 nM,CSCC[C@@H](NC(=O)[C@H](Cc1ccc(-c2ncc(-c3ccc(C(C)(C)C)cc3)cn2)cc1)NC(=O)c1ccc(C(C)(C)C)s1)C(=O)O [Compound 368]
